Data on 19 compounds can be found in patent publication US7915270B2, “Oxazole ketones as modulators of fatty acid amide hydrolase” (The Scripps Research Institute, priority 2006, dated 2011).

The target in one assay is T1, Rat FAAH (Rattus norvegicus, UniProt P97612).
T1 construct: expressed in transfected cells
T1 sequence (P97612 1-579): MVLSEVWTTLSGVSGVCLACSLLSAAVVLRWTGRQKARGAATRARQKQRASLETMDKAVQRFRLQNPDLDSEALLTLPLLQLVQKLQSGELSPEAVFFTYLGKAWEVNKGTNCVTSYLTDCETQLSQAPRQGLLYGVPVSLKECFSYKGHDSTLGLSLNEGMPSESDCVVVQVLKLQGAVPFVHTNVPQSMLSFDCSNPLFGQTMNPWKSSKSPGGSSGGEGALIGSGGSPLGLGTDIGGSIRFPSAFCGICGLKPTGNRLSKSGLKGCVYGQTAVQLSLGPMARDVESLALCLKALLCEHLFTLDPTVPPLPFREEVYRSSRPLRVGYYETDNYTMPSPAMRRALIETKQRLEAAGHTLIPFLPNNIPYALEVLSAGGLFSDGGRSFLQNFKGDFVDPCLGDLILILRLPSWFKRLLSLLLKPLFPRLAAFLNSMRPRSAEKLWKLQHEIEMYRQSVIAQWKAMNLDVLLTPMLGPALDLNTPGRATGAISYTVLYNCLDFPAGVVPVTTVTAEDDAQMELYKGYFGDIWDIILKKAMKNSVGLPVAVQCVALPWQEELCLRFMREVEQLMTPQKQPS
The experiment in a line: Assay Method 2: FAAH assay, 3H-anandamide hydrolysis in cell homogenate (SK-N-MC cells transfected with rat FAAH). Particulars: 3H-AEA 80 nM, rt 1 h, pH 9. It is filed as biochemical. The procedure:
A. Transfection of Cells with Rat FAAH
(§1) A 10-cm tissue culture dish with a confluent monolayer of SK—N-MC cells was split 2 days (d) prior to transfection. Using sterile technique, the media was removed and the cells were detached from the dish by the addition of trypsin. One fifth of the cells were then placed onto a new 10-cm dish. Cells were grown in a 37° C. incubator with 5% CO2 in Minimal Essential Media Eagle with 10% Fetal Bovine Serum. After 2 d, cells were approximately 80% confluent. These cells were removed from the dish with trypsin and pelleted in a clinical centrifuge. The pellet was re-suspended in 400 μL complete media and transferred to an electroporation cuvette with a 0.4 cm gap between the electrodes. Supercoiled rat FAAH cDNA (1 μg) was added to the cells and mixed. The voltage for the electroporation was set at 0.25 kV, and the capacitance was set at 960 μF. After electroporation, the cells were diluted into complete media (10 mL) and plated onto four 10-cm dishes. Because of the variability in the efficiency of electroporation, four different concentrations of cells were plated. The ratios used were 1:20, 1:10, and 1:5, with the remainder of the cells being added to the fourth dish. The cells were allowed to recover for 24 h before adding the selection media (complete media with 600 μg/mL G418). After 10 d, dishes were analyzed for surviving colonies of cells. Dishes with well-isolated colonies were used. Cells from individual colonies were isolated and tested.
The assay mixture consisted of 50 μL of the cell homogenate, 10 μL of the test compound, and 40 μL of anandamide [1-^3H-ethanolamine] (^3H-AEA, Perkin-Elmer, 10.3 Ci/mmol), which was added last, for a final tracer concentration of 80 nM. The reaction mixture was incubated at rt for 1 h. During the incubation, 96-well Multiscreen filter plates (catalog number MAFCNOB50; Millipore, Bedford, Mass., USA) were loaded with 25 μL of activated charcoal (Multiscreen column loader, catalog number MACL09625, Millipore) and washed once with 100 μL of MeOH. […] After the 1 h incubation, 60 μL of the reaction mixture were transferred to the charcoal plates, which were then assembled on top of the DYNEX plates using Centrifuge Alignment Frames (catalog number MACF09604, Millipore). The unbound labeled ethanolamine was centrifuged through to the bottom plate (5 min at 2000 rpm), which was preloaded with the scintillant, as described above. The plates were sealed and left at rt for 1 h before counting on a Hewlett Packard TopCount.

The target of assay [1] is T2, FAAH (Homo sapiens, UniProt O00519).
T2 sequence (O00519 1-579): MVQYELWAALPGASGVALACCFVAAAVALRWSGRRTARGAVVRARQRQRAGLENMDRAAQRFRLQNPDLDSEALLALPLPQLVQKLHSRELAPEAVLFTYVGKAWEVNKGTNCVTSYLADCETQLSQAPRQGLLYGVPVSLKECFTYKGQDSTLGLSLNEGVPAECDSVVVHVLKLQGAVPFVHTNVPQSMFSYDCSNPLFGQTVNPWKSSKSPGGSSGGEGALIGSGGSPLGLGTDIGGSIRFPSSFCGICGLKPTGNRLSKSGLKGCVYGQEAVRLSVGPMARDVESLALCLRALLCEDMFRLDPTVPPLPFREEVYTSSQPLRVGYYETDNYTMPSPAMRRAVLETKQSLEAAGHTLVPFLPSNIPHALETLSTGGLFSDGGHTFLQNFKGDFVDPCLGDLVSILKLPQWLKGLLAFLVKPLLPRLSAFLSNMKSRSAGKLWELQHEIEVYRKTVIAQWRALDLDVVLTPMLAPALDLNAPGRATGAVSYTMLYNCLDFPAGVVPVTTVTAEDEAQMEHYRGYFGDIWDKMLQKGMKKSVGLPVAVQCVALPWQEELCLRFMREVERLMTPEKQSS
The experiment in a line: Assay Method 1B: FAAH assay, 3H-anandamide hydrolysis in cell homogenate (T84 or SK-N-MC cells transfected with human FAAH). It is filed as biochemical. On the set-up: expressed in transfected cells. The settings on record: 3H-AEA 80 nM, rt 1 h, pH 9. On the procedure:
as §1, with “Transfection of Cells with Human FAAH A 10-cm” for “A 10-cm”, “electrodes. Supercoiled human FAAH cDNA” for “electrodes. Supercoiled rat FAAH cDNA”, “and tested. […] The reaction mixture was incubated at rt for 1 h. During the incubation, 96-well Multiscreen filter plates (catalog number MAFCNOB50; Millipore, Bedford, Mass., USA) were loaded with 25 μL of activated charcoal (Multiscreen column loader, catalog number MACL09625, Millipore) and washed once with 100 μL of MeOH. Also during the incubation, 96-well DYNEX MicroLite plates (catalog number NL510410) were loaded with 100 μL of MicroScint40 (catalog number 6013641, Packard Bioscience, Meriden, Conn., USA). After the 1 h incubation, 60 μL of the reaction mixture were transferred to the charcoal plates, which were then assembled on top of the DYNEX plates using Centrifuge Alignment Frames (catalog number MACF09604, Millipore). The unbound labeled ethanolamine was centrifuged through to the bottom plate (5 min at 2000 rpm), which was preloaded with the scintillant, as described above. The plates were sealed and left at rt for 1 h before counting on a Hewlett Packard TopCount.” for “and tested.”

In assay [2] the target is T3, FAAH (Rattus norvegicus, UniProt P97612).
T3 sequence (P97612 1-579): T1 sequence (P97612 1-579)
The experiment in a line: Assay Method 1A: FAAH enzyme assay, 14C-oleamide hydrolysis, solubilized liver plasma membrane extract.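 Further: ki obtained by Dixon analysis, taking the x-intercept of inhibitor concentration versus reciprocal rate plots at fixed substrate level and correcting for substrate concentration relative to Km.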
Experimental: Linear least squares fits were used for all reaction progress curves and R^2 values were consistently >0.97. […] Ki values were determined by the Dixon Method (x-intercepts of weighted linear fits of [I] versus 1/rate plots at constant substrate concentration, which were converted to Ki values using the formula Ki=−xint/[1+[S]/Km]).

Turning to `COC(=O)c1ccc(-c2cnc(C(=O)CCCCCCc3ccccc3)o2)s1` [Example 57, Methyl 5-(2-(7-phenylheptanoyl)oxazol-5-yl)thiophene-2-carboxylate], the IC50 at Rat FAAH is 75 nM; against FAAH [1], 6 nM. The compound further came in with an inhibitory constant (Ki) on FAAH [2] of 7 nM.
Consider `O=C(CCCCCCc1ccccc1)c1ncc(-c2ccccc2O)o1` [Example 30, 1-(5-(2-Hydroxyphenyl)oxazol-2-yl)-7-phenylheptan-1-one], for which the IC50 stood at 3500 nM at Rat FAAH and 115 nM against FAAH [1]. At FAAH [2], this compound registered a Ki of 170 nM.
For `O=C(CCCCCCc1ccccc1)c1ncc(-c2ccccc2[N+](=O)[O-])o1` [Example 1, 1-(5-(2-Nitrophenyl)oxazol-2-yl)-7-phenylheptan-1-one], in that order: 500 nM, 340 nM and 125 nM.
The corresponding values for `O=C(O)c1ccc(-c2cnc(C(=O)CCCCCCc3ccccc3)o2)cc1` [Example 26, 4-(2-(7-Phenylheptanoyl)oxazol-5-yl)benzoic acid] are 160 nM, 6 nM and 60 nM.
Regarding `O=C(CCCCCCc1ccccc1)c1ncc(-c2ccc(C(=O)O)s2)o1` [Example 58, 5-(2-(7-Phenylheptanoyl)oxazol-5-yl)thiophene-2-carboxylic acid], the IC50 against Rat FAAH is 9 nM; on FAAH [1] it was 1 nM. Besides, the Ki at FAAH [2] came to 11 nM.
The corresponding values for `NS(=O)(=O)c1ccc(-c2cnc(C(=O)CCCCCCc3ccccc3)o2)cc1` [Example 21, 4-(2-(7-Phenylheptanoyl)oxazol-5-yl)benzenesulfonamide] are 53 nM, 8 nM and 10 nM.
For `Nc1ccccc1-c1cnc(C(=O)CCCCCCc2ccccc2)o1` [Example 27, 1-(5-(2-Aminophenyl)oxazol-2-yl)-7-phenylheptan-1-one], in that order: 4000 nM, 1000 nM and 750 nM.
The corresponding values for `O=C(CCCCCCc1ccccc1)c1ncc(-c2cccc([N+](=O)[O-])c2)o1` [Example 2, 1-(5-(3-Nitrophenyl)oxazol-2-yl)-7-phenylheptan-1-one] are 500 nM, 50 nM and 28 nM.
For the compound `COC(=O)c1ccc(-c2cnc(C(=O)CCCCCCc3ccccc3)o2)cc1` [Example 24, Methyl 4-(2-(7-phenylheptanoyl)oxazol-5-yl)benzoate], the IC50 worked out at 1000 nM against Rat FAAH and 24 nM against FAAH [1]. Further, the inhibitory constant (Ki) at FAAH [2] came to 40 nM.
As to `O=C(O)c1cccc(-c2cnc(C(=O)CCCCCCc3ccccc3)o2)c1` [Example 25, 3-(2-(7-Phenylheptanoyl)oxazol-5-yl)benzoic acid], the 50% inhibitory concentration (IC50) worked out at 11 nM against Rat FAAH and 4 nM at FAAH [1]. In addition, on FAAH [2], the Ki came to 5 nM.
In the case of `O=C(CCCCCCc1ccccc1)c1ncc(-c2ccccc2F)o1` [Example 10, 1-(5-(2-Fluorophenyl)oxazol-2-yl)-7-phenylheptan-1-one], the 50% inhibitory concentration (IC50) against Rat FAAH worked out at 9000 nM; at FAAH [1], 1600 nM. Further, the affinity on FAAH [2], expressed as Ki, was 110 nM.
On to `NC(=O)c1ccc(-c2cnc(C(=O)CCCCCCc3ccccc3)o2)cc1` [Example 9, 4-(2-(7-Phenylheptanoyl)oxazol-5-yl)benzamide], for which the IC50 was 60 nM against Rat FAAH and 10 nM at FAAH [1].
For `COc1ccc(-c2cnc(C(=O)CCCCCCc3ccccc3)o2)cc1` [Example 15, 1-(5-(4-Methoxyphenyl)oxazol-2-yl)-7-phenylheptan-1-one], in that order: 4000 nM and 770 nM.
For the compound `N#Cc1ccc(-c2cnc(C(=O)CCCCCCc3ccccc3)o2)cc1` [Example 18, 4-(2-(7-Phenylheptanoyl)oxazol-5-yl)benzonitrile], the IC50 on Rat FAAH turned out to be 220 nM; on FAAH [1], 290 nM.
Take `N#Cc1ccccc1-c1cnc(C(=O)CCCCCCc2ccccc2)o1` [Example 16, 2-(2-(7-Phenylheptanoyl)oxazol-5-yl)benzonitrile]: the concentration for half-maximal inhibition (IC50) against Rat FAAH was 2000 nM; on FAAH [1], 110 nM.
Take `O=C(CCCCCCc1ccccc1)c1ncc(-c2ccc(F)cc2)o1` [Example 12, 1-(5-(4-Fluorophenyl)oxazol-2-yl)-7-phenylheptan-1-one]: the figures for the IC50 at Rat FAAH and on FAAH [1] were 1000 nM and 100 nM, respectively.
On to `O=C(CCCCCCc1ccccc1)c1ncc(-c2ccc(O)cc2)o1` [Example 32, 1-(5-(4-Hydroxyphenyl)oxazol-2-yl)-7-phenylheptan-1-one], for which the results for the half-maximal inhibitory concentration (IC50) against Rat FAAH and on FAAH [1] were 1800 nM and 450 nM, respectively.
For `O=C(CCCCCCc1ccccc1)c1ncc(-c2c[nH]c(=O)[nH]c2=O)o1` [Example 54, 5-(2-(7-Phenylheptanoyl)oxazol-5-yl)pyrimidine-2,4(1H,3H)-dione], in that order: 47 nM and 8000 nM.
For `O=C(CCCCCCc1ccccc1)c1ncc(-c2cccc(O)c2)o1` [Example 31, 1-(5-(3-Hydroxyphenyl)oxazol-2-yl)-7-phenylheptan-1-one], in that order: 570 nM and 55 nM.
